# Assay results published in patent US8377974B2 (Millennium Pharmaceuticals, Inc., priority 2004, dated 2013).
# Target: T1, human plasma protein factor Xa (Homo sapiens, UniProt P00742)
# T1 construct: measure proteolytic activity of the enzyme (factor Xa); purchased Haematologic Technologies (Essex Junction, Vt.); host or cells: human plasma
# Assay: Factor Xa IC50 determination: cleavage of paranitroanilide substrate S-2765 in 96-well plates
# Format: biochemical
# Settings: fXa 1 nM, S-2765 100 μM, Tris buffered saline pH 7.4, room temperature
# In short: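 Human plasma factor Xa (1 nM) preincubated 5 min at room temperature with inhibitor (0.01 nM–10 μM final) in Tris-buffered saline pH 7.4 with 5 mM CaCl2, 0.1% BSA, 5% DMSO. S-2765 at 100 μM final; hydrolysis at 405 nm over 2 min. IC50 from 4-parameter fit of initial velocities.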
# T1 sequence (P00742 235-488 limits assumed): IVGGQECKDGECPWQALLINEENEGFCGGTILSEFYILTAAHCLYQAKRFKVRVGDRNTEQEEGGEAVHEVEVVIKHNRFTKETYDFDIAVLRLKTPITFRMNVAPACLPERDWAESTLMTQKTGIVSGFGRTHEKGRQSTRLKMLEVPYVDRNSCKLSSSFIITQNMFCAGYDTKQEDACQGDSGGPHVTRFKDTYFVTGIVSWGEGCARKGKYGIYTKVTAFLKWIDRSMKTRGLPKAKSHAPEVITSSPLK
# T1 sequence (P00742 41-179 partner limits assumed): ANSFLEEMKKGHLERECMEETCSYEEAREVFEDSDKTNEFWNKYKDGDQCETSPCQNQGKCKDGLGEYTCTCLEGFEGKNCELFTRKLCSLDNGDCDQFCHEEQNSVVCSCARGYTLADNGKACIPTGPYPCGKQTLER
row,Compound,IC50 [nM]
1,"COCCN(C)Cc1ccccc1-c1ccc(C2=NOC(CNC(=O)c3ccc(Cl)s3)C2)cc1 (stereo not drawn) [Example 198, 5-Chloro-thiophene-2-carboxylic acid [3-(2′-{[(2-methoxy-ethyl)-methyl-amino]-methyl}-biphenyl-4-yl) 4,5-dihydro-isoxazol-5-ylmethyl]-amide]",≤ 100
2,"C[C@H](NC(=O)c1ccc(Cl)s1)c1cc(-c2ccc(C3=NCCN3C)cc2)no1 [Example 54, (S)-5-Chloro-thiophene-2-carboxylic acid (1-{3-[4-(1-methyl-4,5-dihydro-1H-imidazol-2-yl)-phenyl]-isoxazol-5-yl}-ethyl)-amide]",≥ 500
3,"O=C(NCC1CC(c2ccc(Nc3ccccn3)cc2)=NO1)c1ccc(Cl)s1 (stereo not drawn) [Example 224, 5-Chloro-thiophene-2-carboxylic acid {3-[4-(pyridin-2-ylamino)-phenyl]-4,5-dihydro-isoxazol-5-ylmethyl}-amide]",≥ 500
4,"COc1cc(C(=N)N2CCCC2)ccc1C1=NOC(CNC(=O)c2ccc(Cl)s2)C1 (stereo not drawn) [Example 104, 5-Chloro-thiophene-2-carboxylic acid {3-[4-(imino-pyrrolidin-1-yl-methyl)-2-methoxy-phenyl]-4,5-dihydro-isoxazol-5-ylmethyl}-amide]",≤ 100
5,"O=C(NCc1cn(-c2ccc(N3CCOCC3=O)nc2)nn1)c1ccc(Cl)s1 [Example 387, 5-Chloro-N-((1-(6-(3-oxomorpholino)pyridin-3-yl)-1H-1,2,3-triazol-4-yl)methyl)thiophene-2-carboxamide]",≤ 100
6,"CN(C)Cc1ccccc1-c1ccc(C2=NOC(CNC(=O)c3ccc(Cl)s3)C2)cc1 (stereo not drawn) [Example 194, 5-Chloro-thiophene-2-carboxylic acid [3-(2′-dimethylaminomethyl-biphenyl-4-yl)-4,5-dihydro-isoxazol-5-ylmethyl]-amide]",≤ 100

# Results, then the compound that gave them:
row,IC50 [nM],Compound
1,≤ 100,"CSc1cc(C(=N)N(C)C)ccc1-c1cc(CNC(=O)c2ccc(Cl)s2)on1 [Example 140, 5-Chloro-thiophene-2-carboxylic acid {3-[4-(N,N-dimethyl-carbamimidoyl)-2-methylsulfanyl-phenyl]-isoxazol-5-ylmethyl}-amide]"
2,100 to 500,"CN(C)C(=N)c1ccc(-c2nc(CNC(=O)c3ccc(Cl)s3)cs2)cc1 [Example 350, N-((2-(4-(N,N-Dimethylcarbamimidoyl)phenyl)thiazol-4-yl)methyl)-5-chlorothiophene-2-carboxamide]"
3,≥ 500,"Cc1ccc(C2=NOC(CNC(=O)c3ccc(Cl)s3)C2)cc1 (stereo not drawn) [Example 147, 5-Chloro-thiophene-2-carboxylic acid (3-p-tolyl-4,5-dihydro-isoxazol-5-ylmethyl)-amide]"
4,≤ 100,"N=C(c1ccc(-c2ccc(F)c(CNC(=O)c3ccc(Cl)s3)c2)cc1)N1CCCC1 [Example 376, 5-Chloro-N-((5-(4-(imino(pyrrolidin-1-yl)methyl)phenyl)-2-fluorophenyl)methyl)thiophene-2-carboxamide]"
5,≤ 100,"CN(C)C(=N)c1ccc(-c2nc(CNC(=O)c3ccc(Cl)s3)co2)cc1 [Example 338, N-((2-(4-(N,N-Dimethylcarbamimidoyl)phenyl)oxazol-4-yl)methyl)-5-chlorothiophene-2-carboxamide]"
6,≤ 100,"CN(C)c1cc(C(=N)N2CCCCC2)ccc1-c1cc(CNC(=O)c2ccc(Cl)s2)on1 [Example 97, 5-Chloro-thiophene-2-carboxylic acid {3-[2-dimethylamino-4-(imino-piperidin-1-yl-methyl)-phenyl]-isoxazol-5-ylmethyl}-amide]"
